Experimental data reported in patent publication US11911450B2, “Method for managing pain” (UNIVERSITY OF MIAMI, priority 2017, dated 2024).

Assays:
ITPR1 [1] = target: T1, ITPR1 (Homo sapiens, UniProt Q14643); assay: NGF-induced intracellular calcium release / ITPR1 activation in NBL cells; format: cell-based; parameters: endogenous in cells; details: NBL cells
[2] = test system: RYR-dependent calcium release; assay: 5HT-induced RYR-dependent cytoplasmic calcium release in NBL cells (Fura2 imaging); format: cell-based, human; details: for 5HT-induced cytoplasmic calcium release, effect of ryanodine: 50 μM 5HT
Method: Pharmacodynamics—Bioassay of Calcium Release: Fifteen mm glass coverslips (cat #72228 Electron Microscopy Sciences, Hatfield, PA) were coated with poly-D-Lysine (Sigma) followed by Laminin and 1×10^5 cells were seeded on each coverslip. Twenty-four hrs later, cells were transfected with AAV2-ITR, AAV2-V5-Car10, or AAV2-V5-CA10 vectors as previously described. In embodiments wherein AAV2 is not employed, other expression vectors (including viral vectors) are used. Fura-2AM (cat #F1221 ThermoFisher scientific, Waltham, MA) was dissolved in DMSO (50 μg in 50 μl) and 1% pluronic acid-127 (cat #P2443 Sigma, St Louis, MO) as the stock solution. Forty eight hrs after seeding, cells were loaded with 2 μM Fura-2AM dye for 45 min at room temperature in the dark in a standard Ca+2 buffer solution containing: 125 mM NaCl, 2 mM MgCl, 4.5 mM KCl, 10 glucose, 20 mM HEPES, 2 mM CaCl2, pH 7.4.25. Following dye loading, coverslips were washed with Ca^+2 buffer solution. For imaging and ATP stimulation experiments, coverslips were placed in a recording chamber (cat #QR-42LP Warner instruments Hamden, CT) on a Leica DMI6000B microscope, and perfused at room temperature (˜22° C.) with Ca^+2 free buffer solution containing: 125 mM NaCl, 4 mM MgCl, 4.5 mM KCl, 10 mM glucose, 20 mM HEPES, pH 7.4. For the ratiometric imaging of Fura-2AM, the excitation light was filtered through an ultra high-speed wavelength switcher to provide wavelengths of 340 and 384 nm and capture by a high-speed digital camera (Leica DFC365FX). Activation of ITPR1 channels was achieved via application of 1 μM ATP (Sigma, St Louis, MO). Data acquisition and processing was made using the LAXS software. Regions of interest over the field of view were selected and the mean pixels intensity at each frame was measured. Data was plotted as ratio fluorescence intensity versus time and subsequently converted to a relative scale.
It was also determined that 5HT-induced RYR-dependent calcium release in NBL cells is inhibited by ryanodine. […]

[3] = test system: ITPR1-mediated cytoplasmic calcium release; assay: ATP-induced cytoplasmic calcium release in HEK293 cells (Fura-2 imaging); format: cell-based, human
Method: Cell culture and transfections: Human neuronal-derived (e.g., NBL), human non-neuronal derived (e.g., HEK293) cells, or dispersed rodent primary DRG cells can be used. HEK293 cells (cat #CRL-1573 ATCC Manassas, VA) were cultured in Dulbecco's modified Eagle's medium (DMEM-Glutamax cat #0566; Invitrogen) supplemented with 10% fetal bovine serum, FBS (cat #16140 ThermoFisher scientific, Waltham, MA) and 1% penicillin/streptomycin (cat #15140 ThermoFisher scientific, Waltham, MA). Cells were seeded in six-well plates at density of 1.0×10^5 cells per well. […]
Pharmacodynamics—Bioassay of Calcium Release: Fifteen mm glass coverslips (cat #72228 Electron Microscopy Sciences, Hatfield, PA) were coated with poly-D-Lysine (Sigma) followed by Laminin and 1×10^5 cells were seeded on each coverslip. […] Regions of interest over the field of view were selected and the mean pixels intensity at each frame was measured. Data was plotted as ratio fluorescence intensity versus time and subsequently converted to a relative scale.
To further examine whether FLAG-CA8-204 (data not shown), V5-Car10 and V5-CA10 overexpression can inhibit ATP-induced calcium release, HEK293 cells were infected with each if these constructs and real-time intracellular calcium concentrations at baseline and in response to ATP stimulation were measured (FIG. 2). […]

[4] = morphine dose vs paw withdrawal latency; format: in vivo, mouse; details: approximately 30 minutes after intraperitoneal dosing; 10, 30, and 60 mg/kg
Method: Behavioral tests: Thermal and mechanical sensitivity was measured by Hargreaves test and von Frey filament threshold calculations respectively. See, e.g., Boyce-Rustay et al. Methods Mol Biol. 2010; 617:41-55; Hargreaves et al., Pain. 1988; 32(1):77-88; and Chaplan et al., J Neurosci Methods. 1994; 53(1):55-63. Tests were performed in a quiet room with daylight-like illumination. Animals were habituated to the behavioral room and apparatus for at least 60 minutes for 1 week before a blinded investigator collected data. The thermal sensitivity test was performed using an IITC Plantar Analgesia Meter apparatus (IITC Life sciences, Woodland Hills, CA) with a plastic box placed on a glass plate of constant temperature (30° C.). The mouse plantar surface was exposed to a beam of radiant heat to induced paw withdrawal. Baseline latencies were adjusted to 5-9 sec with a maximum of 20 sec as cutoff to prevent potential injury. The latency time in seconds from the onset of the intense light beam to paw withdrawal was defined as the withdrawal latency of the paw. […] The mouse hind paw was pressed with one of a series of von Frey filaments with logarithmically incrementing stiffness (Stoelting Co, Wood Dale, IL) presented perpendicular to the plantar surface of each hind paw for 1-2 seconds, the 50% threshold was determined using the Up- and Down method.

ITPR1 [5] = target: T1, ITPR1; assay: NGF-induced intracellular calcium release in HEK293 cells; format: cell-based; parameters: endogenous in cells; host or cells: HEK293 (ATCC CRL-1573); details: data not shown

T1 sequence (Q14643 whole entry): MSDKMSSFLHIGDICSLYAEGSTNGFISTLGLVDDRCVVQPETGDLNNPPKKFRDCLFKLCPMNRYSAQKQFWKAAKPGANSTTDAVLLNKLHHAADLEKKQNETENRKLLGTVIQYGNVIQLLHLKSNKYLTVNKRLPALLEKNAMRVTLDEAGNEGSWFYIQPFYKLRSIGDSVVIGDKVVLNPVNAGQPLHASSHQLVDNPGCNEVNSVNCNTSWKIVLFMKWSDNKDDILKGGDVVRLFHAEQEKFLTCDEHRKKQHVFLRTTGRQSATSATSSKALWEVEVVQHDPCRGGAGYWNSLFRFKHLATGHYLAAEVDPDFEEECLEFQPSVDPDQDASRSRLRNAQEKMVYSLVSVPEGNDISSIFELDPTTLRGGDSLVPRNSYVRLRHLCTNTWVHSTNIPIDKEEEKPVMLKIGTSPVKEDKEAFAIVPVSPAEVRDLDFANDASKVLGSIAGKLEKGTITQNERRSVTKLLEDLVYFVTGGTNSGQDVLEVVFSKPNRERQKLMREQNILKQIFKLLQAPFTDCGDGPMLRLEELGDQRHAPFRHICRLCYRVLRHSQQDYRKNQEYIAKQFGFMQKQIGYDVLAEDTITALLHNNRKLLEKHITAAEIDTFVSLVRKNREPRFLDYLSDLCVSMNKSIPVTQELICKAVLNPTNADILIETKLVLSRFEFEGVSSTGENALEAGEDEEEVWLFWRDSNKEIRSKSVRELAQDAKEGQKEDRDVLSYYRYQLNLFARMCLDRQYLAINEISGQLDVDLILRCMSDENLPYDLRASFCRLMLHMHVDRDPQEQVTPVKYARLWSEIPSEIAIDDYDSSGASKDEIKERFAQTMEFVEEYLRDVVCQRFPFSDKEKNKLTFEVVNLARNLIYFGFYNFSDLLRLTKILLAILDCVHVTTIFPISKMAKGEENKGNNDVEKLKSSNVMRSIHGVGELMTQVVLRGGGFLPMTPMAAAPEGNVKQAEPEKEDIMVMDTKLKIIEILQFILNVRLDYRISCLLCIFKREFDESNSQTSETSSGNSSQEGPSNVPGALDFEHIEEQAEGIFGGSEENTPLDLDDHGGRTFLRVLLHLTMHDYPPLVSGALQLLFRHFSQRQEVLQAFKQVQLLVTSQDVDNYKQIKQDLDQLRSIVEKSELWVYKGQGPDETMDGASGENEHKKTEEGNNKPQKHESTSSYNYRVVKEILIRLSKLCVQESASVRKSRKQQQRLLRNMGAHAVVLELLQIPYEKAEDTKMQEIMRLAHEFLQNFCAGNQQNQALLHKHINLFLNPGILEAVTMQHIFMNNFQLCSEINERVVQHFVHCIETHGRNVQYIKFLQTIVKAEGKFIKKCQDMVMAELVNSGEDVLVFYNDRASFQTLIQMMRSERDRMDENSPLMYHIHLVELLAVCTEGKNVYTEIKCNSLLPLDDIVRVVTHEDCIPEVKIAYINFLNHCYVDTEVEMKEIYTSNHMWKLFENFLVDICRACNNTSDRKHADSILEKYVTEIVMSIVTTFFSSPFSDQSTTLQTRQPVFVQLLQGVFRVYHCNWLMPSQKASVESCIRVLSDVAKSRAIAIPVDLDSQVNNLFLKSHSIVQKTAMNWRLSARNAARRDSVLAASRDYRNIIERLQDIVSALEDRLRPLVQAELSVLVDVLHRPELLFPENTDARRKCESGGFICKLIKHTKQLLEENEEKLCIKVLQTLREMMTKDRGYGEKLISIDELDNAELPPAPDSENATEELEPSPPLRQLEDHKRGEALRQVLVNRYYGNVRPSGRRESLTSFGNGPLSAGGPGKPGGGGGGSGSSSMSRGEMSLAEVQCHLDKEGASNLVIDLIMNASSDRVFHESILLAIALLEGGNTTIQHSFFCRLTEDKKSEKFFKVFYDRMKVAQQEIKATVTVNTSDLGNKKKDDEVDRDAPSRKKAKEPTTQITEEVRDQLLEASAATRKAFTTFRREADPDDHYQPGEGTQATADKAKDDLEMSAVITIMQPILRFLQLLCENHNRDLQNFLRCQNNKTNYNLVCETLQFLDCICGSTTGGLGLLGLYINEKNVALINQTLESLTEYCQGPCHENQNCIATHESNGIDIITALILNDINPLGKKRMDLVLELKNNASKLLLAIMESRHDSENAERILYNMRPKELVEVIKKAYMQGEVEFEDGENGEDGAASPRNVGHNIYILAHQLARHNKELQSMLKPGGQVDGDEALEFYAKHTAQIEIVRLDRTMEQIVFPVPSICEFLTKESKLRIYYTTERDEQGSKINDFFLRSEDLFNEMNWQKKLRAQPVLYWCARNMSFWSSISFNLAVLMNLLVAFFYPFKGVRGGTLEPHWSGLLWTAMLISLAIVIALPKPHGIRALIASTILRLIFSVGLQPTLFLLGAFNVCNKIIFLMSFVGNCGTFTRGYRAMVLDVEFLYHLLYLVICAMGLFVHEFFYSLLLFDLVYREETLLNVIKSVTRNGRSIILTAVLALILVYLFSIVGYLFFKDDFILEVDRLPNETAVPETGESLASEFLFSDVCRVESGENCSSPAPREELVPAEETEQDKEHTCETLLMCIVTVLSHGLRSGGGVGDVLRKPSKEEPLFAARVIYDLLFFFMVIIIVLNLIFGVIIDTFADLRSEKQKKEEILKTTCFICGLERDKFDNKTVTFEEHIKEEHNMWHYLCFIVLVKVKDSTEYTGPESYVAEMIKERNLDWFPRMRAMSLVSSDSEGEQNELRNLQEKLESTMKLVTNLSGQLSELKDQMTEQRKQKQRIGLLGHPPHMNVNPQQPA

Compound: NCCOB(c1ccccc1)c1ccccc1 [2-APB, reference compound]
- NGF-induced intracellular calcium release (ITPR1 [1]): nearly completely inhibited

Compound: NCCc1c[nH]c2ccc(O)cc12 [5HT, reference compound]
- effect of 5HT on calcium release [2]: stimulates calcium release

Compound: Nc1ncnc2c1ncn2[C@@H]1O[C@H](COP(=O)(O)OP(=O)(O)OP(=O)(O)O)[C@@H](O)[C@H]1O [ATP, reference compound]
- effect of ATP on cytosolic free calcium [3]: stimulated calcium release and an increase in cytosolic free calcium levels in a dose-dependent manner

Compound: CN1CC[C@]23c4c5ccc(O)c4O[C@H]2[C@@H](O)C=C[C@H]3[C@H]1C5 [morphine, reference compound]
- paw withdrawal latency [4]: Elevations were significant when compared with saline

Compound: NGF: nerve growth factor, stimulant of calcium release
- effect of NGF on intracellular calcium release (ITPR1 [5]): increased intracellular calcium release

Compound: ryanodine [reference compound]
- 5HT-induced cytoplasmic calcium release, effect of ryanodine ([2]; 10 nM ryanodine): nearly completely inhibited
- 5HT-induced cytoplasmic calcium release, effect of ryanodine ([2]; dose-dependent, vs vehicle): significantly inhibited
